Reference: ChEMBL document CHEMBL1201862, “PubChem BioAssay data set” (2004)
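1) Cells in 96-well plates. 2) Compound, 48 h, 5 concentrations. 3) Linear interpolation between surrounding doses. 4) Unreached endpoint = highest concentration. Here, GI50 denotes the concentration required for 50% inhibition of growth.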 The source made the active and inactive calls. Rule as the data show it: active = GI50 up to about 1.1 µM and inactive = higher.

Columns and labels:
Experiment in all cases: DTP human tumour cell line panel, 48 h
[1] = tested on: OVCAR-5
[2] = tested on: KM-20L2
[3] = tested on: HCC 2998
[4] = tested on: HOP-18
[5] = tested on: UACC-257
[6] = tested on: SK-MEL-5
[7] = tested on: SNB-78
[8] = tested on: DMS-114
[9] = tested on: COLO 205
[10] = tested on: CAKI-1
[11] = tested on: NCI-H226
[12] = tested on: HCT-116
[13] = tested on: U-251
[14] = tested on: SK-OV-3
[15] = tested on: ACHN
[16] = tested on: A498
[17] = tested on: SF-268
[18] = tested on: 786-0
[19] = tested on: OVCAR-3
[20] = tested on: SR
[21] = tested on: SF-295
[22] = tested on: SK-MEL-2
[23] = tested on: NCI-H522
[24] = tested on: CCRF-CEM
[25] = tested on: HCT-15
[26] = tested on: TK-10
[27] = tested on: UACC-62
[28] = tested on: A549
[29] = tested on: HT-29
[30] = tested on: OVCAR-8
[31] = tested on: MOLT-4
[32] = tested on: NCI-H460
[33] = tested on: EKVX
[34] = tested on: KM12
[35] = tested on: DLD-1
[36] = tested on: Malme-3M
[37] = tested on: SK-MEL-28
[38] = tested on: RXF 393
[39] = tested on: LOX IMVI
[40] = tested on: SF-539
[41] = tested on: M14
[42] = tested on: SNB-19
[43] = tested on: SN12C
[44] = tested on: K562
[45] = tested on: XF498
[46] = tested on: M19-MEL
[47] = tested on: SNB-75
[48] = tested on: HL-60
[49] = tested on: HOP-92
[50] = tested on: LXFL 529
[51] = tested on: NCI-H23
[52] = tested on: HOP-62
[53] = tested on: IGROV-1
[54] = tested on: UO-31
[55] = tested on: DMS-273
[56] = tested on: OVCAR-4
[57] = tested on: RXF 631
[58] = tested on: RPMI-8226
[59] = tested on: SW-620

CC#C[P+](c1ccccc1)(c1ccccc1)c1ccccc1
GI50 [1]: 8.55 µM (inactive)
GI50 [2]: 6.71 µM (inactive)
GI50 [3]: 3.52 µM (inactive)
GI50 [4]: 11.7 µM (inactive)
GI50 [5]: 2.76 µM (inactive)
GI50 [6]: 2.2 µM (inactive)
GI50 [7]: 4.33 µM (inactive)
GI50 [8]: 2.08 µM (inactive)
GI50 [9]: 1.35 µM (inactive)
GI50 [10]: 3.24 µM (inactive)
GI50 [11]: 3.13 µM (inactive)
GI50 [12]: 2.56 µM (inactive)
GI50 [13]: 0.861 µM (active)
GI50 [14]: 14.6 µM (inactive)
GI50 [15]: 3.99 µM (inactive)
GI50 [16]: 39.4 µM (inactive)
GI50 [17]: 2.09 µM (inactive)
GI50 [18]: 1.6 µM (inactive)
GI50 [19]: 3.09 µM (inactive)
GI50 [20]: 2.88 µM (inactive)
GI50 [21]: 2.75 µM (inactive)
GI50 [22]: 1.56 µM (inactive)
GI50 [23]: 0.284 µM (active)
GI50 [24]: 0.693 µM (active)
GI50 [25]: 2.66 µM
GI50 [26]: 4.09 µM (inactive)
GI50 [27]: 3.72 µM (inactive)
GI50 [28]: 7.91 µM (inactive)
GI50 [29]: 3.25 µM (inactive)
GI50 [30]: 0.962 µM (active)
GI50 [31]: 0.953 µM (active)
GI50 [32]: 2.48 µM (inactive)
GI50 [33]: 4.83 µM (inactive)
GI50 [34]: 2.88 µM (inactive)
GI50 [35]: 2.34 µM (inactive)
GI50 [36]: 10.4 µM (inactive)
GI50 [37]: 12.2 µM (inactive)
GI50 [38]: 5.25 µM (inactive)
GI50 [39]: 2 µM (inactive)
GI50 [40]: 2.25 µM (inactive)
GI50 [41]: 1.88 µM (inactive)
GI50 [42]: 3.3 µM (inactive)
GI50 [43]: 1.12 µM (inactive)
GI50 [44]: 1.95 µM (inactive)
GI50 [45]: 2.39 µM (inactive)
GI50 [46]: 2.9 µM (inactive)
GI50 [47]: 2.43 µM (inactive)
GI50 [48]: 3.71 µM (inactive)
GI50 [49]: 2.16 µM (inactive)
GI50 [50]: 1.32 µM (inactive)
GI50 [51]: 2.06 µM (inactive)
GI50 [52]: 2.83 µM (inactive)
GI50 [53]: 6.95 µM (inactive)
GI50 [54]: 7.41 µM (inactive)
GI50 [55]: 2.11 µM (inactive)
GI50 [56]: 6.49 µM (inactive)

CCOC(=O)C1Oc2ccc([N+](=O)[O-])c3c2C1(O)CCC3 (configuration not stated)
GI50 [1]: > 100 µM (inactive)
GI50 [3]: > 100 µM (inactive)
GI50 [57]: > 100 µM (inactive)
GI50 [5]: > 100 µM (inactive)
GI50 [6]: > 100 µM (inactive)
GI50 [7]: > 100 µM (inactive)
GI50 [8]: > 100 µM (inactive)
GI50 [9]: > 100 µM (inactive)
GI50 [11]: > 100 µM (inactive)
GI50 [13]: > 100 µM (inactive)
GI50 [14]: > 100 µM (inactive)
GI50 [15]: > 100 µM (inactive)
GI50 [16]: 56.2 µM (inactive)
GI50 [17]: > 100 µM (inactive)
GI50 [18]: > 100 µM (inactive)
GI50 [19]: > 100 µM (inactive)
GI50 [20]: > 100 µM (inactive)
GI50 [21]: > 100 µM (inactive)
GI50 [22]: > 100 µM (inactive)
GI50 [23]: > 100 µM (inactive)
GI50 [24]: > 100 µM (inactive)
GI50 [25]: > 100 µM
GI50 [26]: > 100 µM (inactive)
GI50 [27]: > 100 µM (inactive)
GI50 [28]: > 100 µM (inactive)
GI50 [29]: > 100 µM (inactive)
GI50 [58]: > 100 µM (inactive)
GI50 [30]: > 100 µM (inactive)
GI50 [31]: > 100 µM (inactive)
GI50 [32]: 33.4 µM (inactive)
GI50 [33]: > 100 µM (inactive)
GI50 [34]: > 100 µM (inactive)
GI50 [35]: > 100 µM (inactive)
GI50 [36]: > 100 µM (inactive)
GI50 [37]: > 100 µM (inactive)
GI50 [38]: > 100 µM (inactive)
GI50 [39]: > 100 µM (inactive)
GI50 [40]: > 100 µM (inactive)
GI50 [41]: > 100 µM (inactive)
GI50 [42]: > 100 µM (inactive)
GI50 [43]: > 100 µM (inactive)
GI50 [44]: > 100 µM (inactive)
GI50 [59]: > 100 µM (inactive)
GI50 [46]: > 100 µM (inactive)
GI50 [47]: > 100 µM (inactive)
GI50 [48]: > 100 µM (inactive)
GI50 [49]: > 100 µM (inactive)
GI50 [50]: > 100 µM (inactive)
GI50 [51]: > 100 µM (inactive)
GI50 [52]: > 100 µM (inactive)
GI50 [53]: > 100 µM (inactive)
GI50 [54]: 47.2 µM (inactive)
GI50 [55]: > 100 µM (inactive)
GI50 [56]: > 100 µM (inactive)

CC1=C(C(=O)NCc2ccccc2)C(/C=C/c2ccccc2)C(C(=O)NCc2ccccc2)=C(C)N1
GI50 [1]: > 100 µM (inactive)
GI50 [2]: > 100 µM (inactive)
GI50 [3]: > 100 µM (inactive)
GI50 [4]: > 100 µM (inactive)
GI50 [5]: > 100 µM (inactive)
GI50 [6]: > 100 µM (inactive)
GI50 [7]: > 100 µM (inactive)
GI50 [8]: > 100 µM (inactive)
GI50 [10]: > 100 µM (inactive)
GI50 [11]: > 100 µM (inactive)
GI50 [12]: > 100 µM (inactive)
GI50 [15]: > 100 µM (inactive)
GI50 [16]: > 100 µM (inactive)
GI50 [17]: > 100 µM (inactive)
GI50 [18]: > 100 µM (inactive)
GI50 [19]: > 100 µM (inactive)
GI50 [20]: > 100 µM (inactive)
GI50 [21]: > 100 µM (inactive)
GI50 [22]: > 100 µM (inactive)
GI50 [24]: > 100 µM (inactive)
GI50 [25]: > 100 µM
GI50 [26]: > 100 µM (inactive)
GI50 [27]: > 100 µM (inactive)
GI50 [28]: > 100 µM (inactive)
GI50 [29]: > 100 µM (inactive)
GI50 [58]: > 100 µM (inactive)
GI50 [30]: > 100 µM (inactive)
GI50 [31]: > 100 µM (inactive)
GI50 [32]: > 100 µM (inactive)
GI50 [33]: > 100 µM (inactive)
GI50 [34]: > 100 µM (inactive)
GI50 [35]: > 100 µM (inactive)
GI50 [36]: > 100 µM (inactive)
GI50 [37]: > 100 µM (inactive)
GI50 [38]: > 100 µM (inactive)
GI50 [39]: > 100 µM (inactive)
GI50 [40]: > 100 µM (inactive)
GI50 [41]: > 100 µM (inactive)
GI50 [42]: > 100 µM (inactive)
GI50 [43]: > 100 µM (inactive)
GI50 [44]: > 100 µM (inactive)
GI50 [59]: > 100 µM (inactive)
GI50 [45]: > 100 µM (inactive)
GI50 [46]: > 100 µM (inactive)
GI50 [47]: 85.9 µM (inactive)
GI50 [48]: > 100 µM (inactive)
GI50 [49]: > 100 µM (inactive)
GI50 [50]: > 100 µM (inactive)
GI50 [51]: > 100 µM (inactive)
GI50 [52]: > 100 µM (inactive)
GI50 [53]: > 100 µM (inactive)
GI50 [54]: > 100 µM (inactive)
GI50 [55]: > 100 µM (inactive)
GI50 [56]: > 100 µM (inactive)

CC(C)(C)C1=CC(=N/N=c2\scc(-c3ccccc3)n2-c2ccccc2)C=C(C(C)(C)C)C1=O
GI50 [1]: > 100 µM (inactive)
GI50 [2]: > 100 µM (inactive)
GI50 [3]: > 100 µM (inactive)
GI50 [4]: > 100 µM (inactive)
GI50 [5]: > 100 µM (inactive)
GI50 [6]: > 100 µM (inactive)
GI50 [7]: > 100 µM (inactive)
GI50 [8]: > 100 µM (inactive)
GI50 [9]: > 100 µM (inactive)
GI50 [10]: > 100 µM (inactive)
GI50 [11]: > 100 µM (inactive)
GI50 [12]: > 100 µM (inactive)
GI50 [13]: > 100 µM (inactive)
GI50 [14]: > 100 µM (inactive)
GI50 [15]: > 100 µM (inactive)
GI50 [16]: > 100 µM (inactive)
GI50 [17]: > 100 µM (inactive)
GI50 [18]: > 100 µM (inactive)
GI50 [19]: > 100 µM (inactive)
GI50 [20]: > 100 µM (inactive)
GI50 [21]: > 100 µM (inactive)
GI50 [22]: > 100 µM (inactive)
GI50 [23]: > 100 µM (inactive)
GI50 [24]: > 100 µM (inactive)
GI50 [25]: > 100 µM
GI50 [26]: > 100 µM (inactive)
GI50 [27]: > 100 µM (inactive)
GI50 [28]: > 100 µM (inactive)
GI50 [29]: > 100 µM (inactive)
GI50 [58]: > 100 µM (inactive)
GI50 [30]: > 100 µM (inactive)
GI50 [31]: > 100 µM (inactive)
GI50 [32]: > 100 µM (inactive)
GI50 [33]: > 100 µM (inactive)
GI50 [34]: > 100 µM (inactive)
GI50 [35]: > 100 µM (inactive)
GI50 [36]: > 100 µM (inactive)
GI50 [37]: > 100 µM (inactive)
GI50 [38]: > 100 µM (inactive)
GI50 [39]: > 100 µM (inactive)
GI50 [40]: > 100 µM (inactive)
GI50 [41]: > 100 µM (inactive)
GI50 [42]: > 100 µM (inactive)
GI50 [43]: > 100 µM (inactive)
GI50 [44]: > 100 µM (inactive)
GI50 [59]: 86.5 µM (inactive)
GI50 [45]: > 100 µM (inactive)
GI50 [46]: > 100 µM (inactive)
GI50 [47]: > 100 µM (inactive)
GI50 [48]: > 100 µM (inactive)
GI50 [49]: > 100 µM (inactive)
GI50 [50]: > 100 µM (inactive)
GI50 [51]: > 100 µM (inactive)
GI50 [52]: > 100 µM (inactive)
GI50 [53]: > 100 µM (inactive)
GI50 [54]: > 100 µM (inactive)
GI50 [55]: > 100 µM (inactive)
GI50 [56]: > 100 µM (inactive)
